According to patent US20050250801A1, “Method of treating cancer with azaspirane compositions” (priority 2003, published 2005):
Read-outs that look alike come from different tables or passages of the source.

Experiments:
Test in all cases: NCI in vitro SRB assay, Non-Small Cell Lung Cancer
Type in all cases: cell-based
[1] = system: NCI-H322M; conditions: for GI50 / CC50: Homo sapiens
Method: (§1) An in vitro assay which tested the ability of N,N,-diethyl-8,8-dipropyl-2-azaspiro[4,5]decane-2-propanamine dimaleate (Compound 1) to inhibit the growth of known cancer cell lines was performed by the National Cancer Institute in accordance with standard procedures. See: Lin, Z. X., Hoult, J. R., and Raman, A. Sulphorhodamine B assay for measuring proliferation of a pigmented melanocyte cell line and its application to the evaluation of crude drugs used in the treatment of vitiligo. J Ethnopharmacol. 66: 141-150, 1999. Briefly, selected tumor cell lines were cultured in media containing five different concentrations of Compound 1. After 48 hours of continuous exposure, a sulforhodamine B (SRB) assay was used to estimate cell viability or growth via optical measurements.
(§2) From the measurements, the following values were determined: 1) the concentration of Compound 1 at which a tumor cell growth inhibition of 50% (relative to control) occurs (GI50), 2) the concentration of Compound 1 at which no growth occurs (total growth inhibition, TGI), and 3) the concentration of Compound 1 at which the […] (LC 50). […] FIG. 6 illustrates, graphically, tumor cell growth as a function of Compound 1 concentration of the scanned tumor cell lines.

[2] = system: A549/ATCC; conditions: for CC50 / GI50: Homo sapiens
Method: as §1, §2

[3] = system: EKVX; conditions: for GI50: Homo sapiens
Method: as §1, §2

[4] = system: NCI-H460; conditions: for CC50 / GI50: Homo sapiens
Method: as §1, §2

[5] = system: HOP-92; conditions: for CC50 / GI50: Homo sapiens
Method: as §1, §2

[6] = system: NCI-H522; conditions: for CC50 / GI50: Homo sapiens
Method: as §1, §2

[7] = system: NCI-H23; conditions: for CC50 / GI50: Homo sapiens
Method: as §1, §2

[8] = read-out: Log10 GI50 (converted)
[9] = A549/ATCC, Log10 conc -4.0 Moles/L
[10] = A549/ATCC, Log10 conc -5.0 Moles/L
[11] = A549/ATCC, Log10 conc -6.0 Moles/L
[12] = A549/ATCC, Log10 conc -7.0 Moles/L
[13] = A549/ATCC, Log10 conc -8.0 Moles/L
[14] = NCI-H460, Log10 conc -4.0 Moles/L
[15] = NCI-H460, Log10 conc -5.0 Moles/L
[16] = NCI-H460, Log10 conc -6.0 Moles/L
[17] = NCI-H460, Log10 conc -7.0 Moles/L
[18] = NCI-H460, Log10 conc -8.0 Moles/L
[19] = HOP-92, Log10 conc -4.0 Moles/L
[20] = HOP-92, Log10 conc -5.0 Moles/L
[21] = HOP-92, Log10 conc -6.0 Moles/L
[22] = HOP-92, Log10 conc -7.0 Moles/L
[23] = HOP-92, Log10 conc -8.0 Moles/L
[24] = NCI-H522, Log10 conc -4.0 Moles/L
[25] = NCI-H522, Log10 conc -5.0 Moles/L
[26] = NCI-H522, Log10 conc -6.0 Moles/L
[27] = NCI-H522, Log10 conc -7.0 Moles/L
[28] = NCI-H522, Log10 conc -8.0 Moles/L
[29] = NCI-H23, Log10 conc -4.0 Moles/L
[30] = NCI-H23, Log10 conc -5.0 Moles/L
[31] = NCI-H23, Log10 conc -6.0 Moles/L
[32] = NCI-H23, Log10 conc -7.0 Moles/L
[33] = NCI-H23, Log10 conc -8.0 Moles/L

Q: For CCCC1(CCC)CCC2(CCN(CCCN(CC)CC)C2)CC1.O=C(O)/C=C\C(=O)O.O=C(O)/C=C\C(=O)O [Compound 1, N,N,-diethyl-8,8-dipropyl-2-azaspiro[4,5]decane-2-propanamine dimaleate], which “Log10 TGI” value [1] is on record?
A: −5.64

Q: And the TGI [1]?
A: 2.29 µM

Q: What about the GI50 ([1]; read-out: GI50) of the same compound?
A: 0.89 µM

Q: What about the CC50 ([1]; read-out: LC50) of the same compound?
A: 5.41 µM

Q: What about the GI50 [1, 8] of the same compound?
A: 0.891 µM

Q: And the CC50 ([1]; read-out: Log10 LC50 (converted))?
A: 5.37 µM

Q: What about the “Mean Optical Densities” value ([1]; Log10 conc -4.0 Moles/L) of the same compound?
A: 0.115

Q: And the “Percent Growth” value ([1]; Log10 conc -4.0 Moles/L)?
A: −84%

Q: What about the “Mean Optical Densities” value ([1]; Log10 conc -5.0 Moles/L) of the same compound?
A: 0.100

Q: And the “Percent Growth” value ([1]; Log10 conc -5.0 Moles/L)?
A: −86%

Q: What about the “Mean Optical Densities” value ([1]; Log10 conc -6.0 Moles/L) of the same compound?
A: 0.855

Q: What about the “Percent Growth” value ([1]; Log10 conc -6.0 Moles/L) of the same compound?
A: 48%

Q: And the “Mean Optical Densities” value ([1]; Log10 conc -7.0 Moles/L)?
A: 0.979

Q: What about the “Percent Growth” value ([1]; Log10 conc -7.0 Moles/L) of the same compound?
A: 86%

Q: And the “Mean Optical Densities” value ([1]; Log10 conc -8.0 Moles/L)?
A: 0.991

Q: And the “Percent Growth” value ([1]; Log10 conc -8.0 Moles/L)?
A: 89%

Q: What about the “Log10 TGI” value ([2]; A549/ATCC) of the same compound?
A: −5.48

Q: And the TGI ([2]; A549/ATCC)?
A: 3.33 µM

Q: And the “Mean Optical Densities” value [2, 9]?
A: 0.056

Q: What about the “Percent Growth” value [2, 9] of the same compound?
A: −78%

Q: What about the “Mean Optical Densities” value [2, 10] of the same compound?
A: 0.070

Q: What about the “Percent Growth” value [2, 10] of the same compound?
A: −73%

Q: What about the “Mean Optical Densities” value [2, 11] of the same compound?
A: 1.126

Q: And the “Percent Growth” value [2, 11]?
A: 80%

Q: And the “Mean Optical Densities” value [2, 12]?
A: 1.307

Q: And the “Percent Growth” value [2, 12]?
A: 96%

Q: What about the “Mean Optical Densities” value [2, 13] of the same compound?
A: 1.277

Q: And the “Percent Growth” value [2, 13]?
A: 94%

Q: And the CC50 ([2]; A549, read-out: LC50)?
A: 7.08 µM

Q: And the CC50 ([2]; A549, read-out: Log10 LC50 (converted))?
A: 7.08 µM

Q: What about the GI50 ([2]; A549/ATCC, read-out: GI50) of the same compound?
A: 1.57 µM

Q: And the GI50 ([2]; A549/ATCC, read-out: Log10 GI50 (converted))?
A: 1.58 µM

Q: What about the “Log10 TGI” value [3] of the same compound?
A: −5.39

Q: And the TGI [3]?
A: 4.09 µM

Q: What about the GI50 ([3]; read-out: GI50) of the same compound?
A: 2.11 µM

Q: What about the GI50 [3, 8] of the same compound?
A: 2.09 µM

Q: And the “Mean Optical Densities” value ([3]; Log10 conc -4.0 Moles/L)?
A: 0.073

Q: And the “Percent Growth” value ([3]; Log10 conc -4.0 Moles/L)?
A: −88%

Q: What about the “Mean Optical Densities” value ([3]; Log10 conc -5.0 Moles/L) of the same compound?
A: 0.202

Q: What about the “Percent Growth” value ([3]; Log10 conc -5.0 Moles/L) of the same compound?
A: −67%

Q: What about the “Mean Optical Densities” value ([3]; Log10 conc -6.0 Moles/L) of the same compound?
A: 1.321

Q: And the “Percent Growth” value ([3]; Log10 conc -6.0 Moles/L)?
A: 106%

Q: And the “Mean Optical Densities” value ([3]; Log10 conc -7.0 Moles/L)?
A: 1.336

Q: What about the “Percent Growth” value ([3]; Log10 conc -7.0 Moles/L) of the same compound?
A: 108%

Q: And the “Mean Optical Densities” value ([3]; Log10 conc -8.0 Moles/L)?
A: 1.280

Q: What about the “Percent Growth” value ([3]; Log10 conc -8.0 Moles/L) of the same compound?
A: 100%

Q: And the CC50 ([4]; NCI-H460, read-out: LC50)?
A: 5.08 µM

Q: And the CC50 ([4]; NCI-H460, read-out: Log10 LC50 (converted))?
A: 5.13 µM

Q: And the GI50 ([4]; NCI-H460, read-out: GI50)?
A: 1.31 µM

Q: What about the GI50 ([4]; NCI-H460, read-out: Log10 GI50 (converted)) of the same compound?
A: 1.32 µM

Q: What about the “Log10 TGI” value ([4]; NCI-H460) of the same compound?
A: −5.59

Q: What about the TGI ([4]; NCI-H460) of the same compound?
A: 2.58 µM

Q: What about the “Mean Optical Densities” value [4, 14] of the same compound?
A: 0.015

Q: And the “Percent Growth” value [4, 14]?
A: −90%

Q: And the “Mean Optical Densities” value [4, 15]?
A: −0.001

Q: What about the “Percent Growth” value [4, 15] of the same compound?
A: −100%

Q: And the “Mean Optical Densities” value [4, 16]?
A: 1.075

Q: And the “Percent Growth” value [4, 16]?
A: 70%

Q: And the “Mean Optical Densities” value [4, 17]?
A: 1.278

Q: And the “Percent Growth” value [4, 17]?
A: 85%

Q: What about the “Mean Optical Densities” value [4, 18] of the same compound?
A: 1.403

Q: What about the “Percent Growth” value [4, 18] of the same compound?
A: 95%

Q: What about the “Log10 TGI” value ([5]; HOP-92) of the same compound?
A: −5.41

Q: And the TGI ([5]; HOP-92)?
A: 3.92 µM

Q: What about the “Mean Optical Densities” value [5, 19] of the same compound?
A: 0.106

Q: And the “Percent Growth” value [5, 19]?
A: −87%

Q: What about the “Mean Optical Densities” value [5, 20] of the same compound?
A: 0.542

Q: And the “Percent Growth” value [5, 20]?
A: −33%

Q: And the “Mean Optical Densities” value [5, 21]?
A: 1.227

Q: And the “Percent Growth” value [5, 21]?
A: 49%

Q: What about the “Mean Optical Densities” value [5, 22] of the same compound?
A: 1.412

Q: What about the “Percent Growth” value [5, 22] of the same compound?
A: 71%

Q: What about the “Mean Optical Densities” value [5, 23] of the same compound?
A: 1.529

Q: What about the “Percent Growth” value [5, 23] of the same compound?
A: 85%

Q: What about the CC50 ([5]; HOP-92, read-out: LC50) of the same compound?
A: 20.3 µM

Q: What about the CC50 ([5]; HOP-92, read-out: Log10 LC50 (converted)) of the same compound?
A: 20.4 µM

Q: What about the GI50 ([5]; HOP-92, read-out: GI50) of the same compound?
A: 0.897 µM

Q: What about the GI50 ([5]; HOP-92, read-out: Log10 GI50 (converted)) of the same compound?
A: 0.891 µM

Q: What about the CC50 ([6]; NCI-H522, read-out: LC50) of the same compound?
A: > 100 µM

Q: What about the CC50 ([6]; NCI-H522, read-out: Log10 LC50 (converted)) of the same compound?
A: > 100 µM

Q: And the GI50 ([6]; NCI-H522, read-out: GI50)?
A: 1.18 µM

Q: What about the GI50 ([6]; NCI-H522, read-out: Log10 GI50 (converted)) of the same compound?
A: 1.17 µM

Q: And the “Log10 TGI” value ([6]; NCI-H522)?
A: −5.22

Q: And the TGI ([6]; NCI-H522)?
A: 6.05 µM

Q: And the “Mean Optical Densities” value [6, 24]?
A: 0.099

Q: What about the “Percent Growth” value [6, 24] of the same compound?
A: −7%

Q: What about the “Mean Optical Densities” value [6, 25] of the same compound?
A: 0.091

Q: What about the “Percent Growth” value [6, 25] of the same compound?
A: −15%

Q: What about the “Mean Optical Densities” value [6, 26] of the same compound?
A: 0.347

Q: What about the “Percent Growth” value [6, 26] of the same compound?
A: 55%

Q: And the “Mean Optical Densities” value [6, 27]?
A: 0.531

Q: What about the “Percent Growth” value [6, 27] of the same compound?
A: 97%

Q: And the “Mean Optical Densities” value [6, 28]?
A: 0.518

Q: What about the “Percent Growth” value [6, 28] of the same compound?
A: 94%

Q: And the CC50 ([7]; NCI-H23, read-out: LC50)?
A: 6.32 µM

Q: What about the CC50 ([7]; NCI-H23, read-out: Log10 LC50 (converted)) of the same compound?
A: 6.31 µM

Q: And the GI50 ([7]; NCI-H23, read-out: GI50)?
A: 1.96 µM

Q: What about the GI50 ([7]; NCI-H23, read-out: Log10 GI50 (converted)) of the same compound?
A: 1.95 µM

Q: And the “Log10 TGI” value ([7]; NCI-H23)?
A: −5.45

Q: And the TGI ([7]; NCI-H23)?
A: 3.52 µM

Q: What about the “Mean Optical Densities” value [7, 29] of the same compound?
A: 0.030

Q: What about the “Percent Growth” value [7, 29] of the same compound?
A: −92%

Q: What about the “Mean Optical Densities” value [7, 30] of the same compound?
A: 0.040

Q: What about the “Percent Growth” value [7, 30] of the same compound?
A: −89%

Q: What about the “Mean Optical Densities” value [7, 31] of the same compound?
A: 0.822

Q: What about the “Percent Growth” value [7, 31] of the same compound?
A: 107%

Q: What about the “Mean Optical Densities” value [7, 32] of the same compound?
A: 0.814

Q: What about the “Percent Growth” value [7, 32] of the same compound?
A: 105%

Q: And the “Mean Optical Densities” value [7, 33]?
A: 0.728

Q: What about the “Percent Growth” value [7, 33] of the same compound?
A: 85%
